Data as given in ChEMBL document CHEMBL1201862, “PubChem BioAssay data set” (2004).
Calls of active or inactive are those of the source.

Tests used:
[1] = cytotoxicity toward NIH3T3 fibroblasts, dose response, counter-screen, cell-based, ATP luminescence, mouse fibroblasts (AID 2010); type: functional;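 further: cells exposed to compound for about 90 hours before reading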
[2] = tested on: Streptococcus; assay: Group A Streptococcus viability loss, dose response, counter-screen for streptokinase expression inhibitor project, luminescence, BacTiterGlo (AID 1915); type: functional, organism-based;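 further: potency for reduction of bacterial viability or growth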
[3] = target: Beta Lactamase (Pseudomonas aeruginosa, UniProt Q932Y6); assay: beta-lactamase reporter inhibitor potency, dose response, artefact control for TLR9-MyD88 binding inhibitor project, BLA reporter cells, FRET fluorescence (AID 588341); type: cell-based;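 further: cell based assay in CHO-K1 cells stably expressing beta-lactamase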
[4] = CEM21 lymphoblast cell cytotoxicity, dose response, cytotoxicity control for viral fusion inhibitor project, CellTiter-Glo luminescence, cherry-picked (AID 652042); type: functional, cell-based;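 further: potency for signal decrease meaning cytotoxicity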
[5] = tested on: Streptococcus sp. 'group A'; assay: growth inhibition of control SK(-) GAS strain, dose response, counter-screen for streptokinase expression inhibitor project, luminescence, kanamycin, BacTiterGlo, confirmation (AID 1900); type: functional, organism-based
[6] = ZM109 Env clade C HIV-1 fusion inhibitors, dose response, HeLa effector, CEM target cells, luciferase, cherry-pick (AID 652058); type: functional, cell-based
[7] = tested on: CHO; assay: cytotoxicity in TLR9-MyD88 CHO cells, dose response, cytotoxicity control for TLR9-MyD88 binding inhibitor project, cell-based, luminescence (AID 588339); type: functional, hamster; conditions: Cricetulus griseus;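 further: CHO cells stably coexpressing TLR9 and MyD88 fusions from primary screen; compound exposure lasted 48 hours before viability readout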
[8] = inhibitors of intracellular T. cruzi replication, confirmation, NIH3T3 host cells, beta-gal luminescence (AID 2044); type: functional, cell-based;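 further: intracellular parasites grown in NIH/3T3 mouse fibroblasts as host cells; luminescent beta-galactosidase reporter signal from transgenic T. cruzi replicating inside host cells; inhibitors lower the luminescence signal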
[9] = tested on: HEK293; assay: inhibitors of LMP1-driven NF-kB reporter, dose response, cell-based, HEK293, luciferase, cherry-pick (AID 588343); type: functional; conditions: Homo sapiens
[10] = inhibitors of clade B AD8 Env fusion, dose response, cell-based, cherry-pick (AID 652062); type: functional;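 further: luciferase signal from cell-cell fusion driven by HIV-1 clade B AD8 Env; potency is for inhibitors of fusion seen as a drop in luminescence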
[11] = target: T1, Protein RecA (Mycobacterium tuberculosis, UniProt P9WHJ3); assay: Fluorescence Cell-Free Homogeneous Dose Retest to Identify Inhibitors of RecA-Intein Splicing Activity. [Related pubchem assays (depositor defined):AID2097, AID2223, AID489010, AID492950]; type: functional
T1 sequence (P9WHJ3 whole entry): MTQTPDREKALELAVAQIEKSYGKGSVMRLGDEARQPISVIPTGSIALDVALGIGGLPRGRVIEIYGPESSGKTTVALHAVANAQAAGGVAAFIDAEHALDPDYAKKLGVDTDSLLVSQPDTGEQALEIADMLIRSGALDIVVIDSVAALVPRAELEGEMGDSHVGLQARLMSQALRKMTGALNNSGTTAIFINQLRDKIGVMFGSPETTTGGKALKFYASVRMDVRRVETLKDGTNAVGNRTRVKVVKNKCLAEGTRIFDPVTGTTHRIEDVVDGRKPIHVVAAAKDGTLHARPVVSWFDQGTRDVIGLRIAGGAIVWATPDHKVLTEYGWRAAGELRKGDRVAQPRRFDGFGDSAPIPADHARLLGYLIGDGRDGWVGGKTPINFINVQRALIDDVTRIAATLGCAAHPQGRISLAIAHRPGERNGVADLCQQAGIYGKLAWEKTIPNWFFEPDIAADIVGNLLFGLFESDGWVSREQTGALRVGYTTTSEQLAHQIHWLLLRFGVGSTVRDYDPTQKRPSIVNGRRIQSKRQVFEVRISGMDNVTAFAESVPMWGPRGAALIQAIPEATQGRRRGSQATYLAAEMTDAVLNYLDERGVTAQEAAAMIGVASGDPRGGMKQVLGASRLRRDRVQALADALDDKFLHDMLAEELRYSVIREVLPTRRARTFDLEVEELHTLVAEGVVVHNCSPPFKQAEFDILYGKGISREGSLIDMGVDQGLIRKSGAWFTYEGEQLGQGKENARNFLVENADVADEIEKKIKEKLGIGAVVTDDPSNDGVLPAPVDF

[12] = tested on: INS1; assay: beta cell apoptosis inhibitors, cytokine rescue, dose response, luminescence, retest (AID 449756); type: functional, cell-based; conditions: Rattus norvegicus;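 further: cell death triggered by IL-1 beta plus TNF-alpha plus IFN-gamma mixture; protective hits raise ATP signal compared with cytokine alone wells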
[13] = target: T2, Replicative DNA helicase DnaB (Mycobacterium tuberculosis, UniProt P9WMR3); assay: DnaB intein splicing inhibitors, dose response, biochemical, cell-free fluorescence (AID 449749); type: functional
T2 sequence (P9WMR3 whole entry): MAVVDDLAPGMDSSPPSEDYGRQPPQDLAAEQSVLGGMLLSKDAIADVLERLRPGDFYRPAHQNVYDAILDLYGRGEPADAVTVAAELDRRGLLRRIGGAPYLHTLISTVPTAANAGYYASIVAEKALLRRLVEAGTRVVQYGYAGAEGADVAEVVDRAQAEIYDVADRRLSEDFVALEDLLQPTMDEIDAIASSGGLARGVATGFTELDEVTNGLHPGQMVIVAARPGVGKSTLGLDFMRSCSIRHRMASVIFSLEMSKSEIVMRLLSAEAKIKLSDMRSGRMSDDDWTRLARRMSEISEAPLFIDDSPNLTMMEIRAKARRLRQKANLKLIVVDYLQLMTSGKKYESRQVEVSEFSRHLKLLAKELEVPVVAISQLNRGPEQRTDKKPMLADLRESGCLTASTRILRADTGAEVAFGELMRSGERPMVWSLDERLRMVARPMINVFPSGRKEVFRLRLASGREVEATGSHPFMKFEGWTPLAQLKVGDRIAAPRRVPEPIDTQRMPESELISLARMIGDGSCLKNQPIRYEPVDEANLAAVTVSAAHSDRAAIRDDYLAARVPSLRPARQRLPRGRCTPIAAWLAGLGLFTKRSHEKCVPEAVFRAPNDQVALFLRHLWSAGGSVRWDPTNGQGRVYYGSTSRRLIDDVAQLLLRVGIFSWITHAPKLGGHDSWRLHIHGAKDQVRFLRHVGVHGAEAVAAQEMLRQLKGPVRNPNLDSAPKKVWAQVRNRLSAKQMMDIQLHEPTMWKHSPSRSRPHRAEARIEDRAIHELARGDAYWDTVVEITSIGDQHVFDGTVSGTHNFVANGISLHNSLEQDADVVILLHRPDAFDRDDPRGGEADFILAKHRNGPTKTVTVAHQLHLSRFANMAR

[14] = target: T3, Streptokinase A (Streptococcus pyogenes serotype M1, UniProt P10520); assay: S. pyogenes streptokinase expression inhibitors, potency, dose response, plasminogen activation absorbance, OD405 (AID 1914); type: functional, Streptococcus pyogenes M1 GAS;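 further: secreted streptokinase activity via plasminogen activation per viability signal from cell pellet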
T3 sequence (P10520 whole entry): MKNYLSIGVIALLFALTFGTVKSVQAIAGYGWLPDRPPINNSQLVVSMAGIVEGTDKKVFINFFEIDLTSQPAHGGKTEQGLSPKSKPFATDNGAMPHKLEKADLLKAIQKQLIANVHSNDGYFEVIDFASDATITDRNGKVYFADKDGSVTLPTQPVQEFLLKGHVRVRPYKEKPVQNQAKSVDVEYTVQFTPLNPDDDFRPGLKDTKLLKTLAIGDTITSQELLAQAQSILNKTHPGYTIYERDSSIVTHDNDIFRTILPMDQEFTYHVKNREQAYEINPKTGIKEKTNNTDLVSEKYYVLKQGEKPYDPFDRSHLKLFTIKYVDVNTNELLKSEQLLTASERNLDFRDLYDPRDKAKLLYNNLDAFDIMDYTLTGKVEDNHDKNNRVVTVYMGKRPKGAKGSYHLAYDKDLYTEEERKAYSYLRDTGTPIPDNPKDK

[15] = HepG2 cell cytotoxicity, dose response, cytotoxicity control for Shn3 inhibitor project, CellTiter-Glo, cherry-picked (AID 624134); type: functional, cell-based
[16] = inhibitors of HIV Env-driven cell fusion, dose response, cherry-pick (AID 652057); type: functional, cell-based
[17] = target: G-protein coupled receptor 55 (Homo sapiens, UniProt Q9Y2T6); assay: GPR55 agonists via beta-arrestin recruitment, primary screen, imaging, U2OS cells, beta-arrestin-GFP redistribution (AID 1961); type: functional
[18] = target: Delta-type opioid receptor (Homo sapiens, UniProt P41143); assay: Counterscreen for agonists of heterodimerization of the mu 1 (OPRM1) and delta 1 (OPRD1) opioid receptors: Luminescence-based cell-based high throughput dose response assay to identify agonists of OPRD1 homodimerization. [Related pubchem assays (depositor defined):AID504326, AID504355, AID504692, AID504904, AID504905]; type: functional
[19] = target: 5-hydroxytryptamine receptor 5A (Homo sapiens, UniProt P47898); assay: Counterscreen for agonists of OPRM1-OPRD1 heterodimerization: luminescence-based cell-based high throughput dose response assay to identify agonists of 5-hydroxytryptamine (serotonin) 5A receptor (HTR5A). [Related pubchem assays (depositor defined):AID504326, AID504355, AID504692, AID504904, AID504905]; type: functional
[20] = target: Nonstructural protein 1 (Influenza A virus, UniProt Q194T2); type: functional, Influenza A virus (A/California/07/2009(H1N1))
[21] = Shn3 3'UTR reporter inhibitors, dose response, cell-based, Clone20 osteoblasts, firefly luciferase, cherry-picked (AID 624132); type: functional;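 further: firefly luciferase luminescence from reporter carrying the Shn3 3'UTR in osteoblasts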
[22] = target: Mu-type opioid receptor (Homo sapiens, UniProt P35372); assay: Counterscreen for agonists of heterodimerization of the mu 1 (OPRM1) and delta 1 (OPRD1) opioid receptors: Luminescence-based cell-based high throughput dose response assay to identify agonists of OPRM1 homodimerization.; type: functional;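 further: U2OS cells expressing OPRM1 and beta-arrestin as split beta-galactosidase partners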
[23] = control 3'UTR Renilla luciferase suppression, dose response, counter-screen for Shn3 inhibitor project, cell-based, Clone20-Shn3RL, cherry-picked (AID 624133); type: functional

Chain of Beta Lactamase (Q932Y6 whole entry, the tested form may be a part): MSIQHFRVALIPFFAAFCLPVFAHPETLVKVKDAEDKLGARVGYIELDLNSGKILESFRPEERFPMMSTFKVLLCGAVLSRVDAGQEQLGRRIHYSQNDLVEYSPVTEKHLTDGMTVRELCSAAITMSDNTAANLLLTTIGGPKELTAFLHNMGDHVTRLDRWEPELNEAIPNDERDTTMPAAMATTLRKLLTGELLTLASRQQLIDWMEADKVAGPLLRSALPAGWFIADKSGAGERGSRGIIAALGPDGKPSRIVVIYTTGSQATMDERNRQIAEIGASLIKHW
Chain of Delta-type opioid receptor (P41143 whole entry): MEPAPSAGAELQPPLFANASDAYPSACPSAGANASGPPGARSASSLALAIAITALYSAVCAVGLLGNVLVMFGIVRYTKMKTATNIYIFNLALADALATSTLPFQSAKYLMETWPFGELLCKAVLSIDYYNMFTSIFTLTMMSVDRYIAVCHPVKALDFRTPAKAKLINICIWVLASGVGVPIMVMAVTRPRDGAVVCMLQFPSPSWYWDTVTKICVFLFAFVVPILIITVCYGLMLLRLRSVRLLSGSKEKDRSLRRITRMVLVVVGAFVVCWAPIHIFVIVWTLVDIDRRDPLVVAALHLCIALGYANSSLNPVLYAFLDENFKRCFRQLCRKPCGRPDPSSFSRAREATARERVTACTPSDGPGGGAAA
Chain of G-protein coupled receptor 55 (Q9Y2T6 whole entry): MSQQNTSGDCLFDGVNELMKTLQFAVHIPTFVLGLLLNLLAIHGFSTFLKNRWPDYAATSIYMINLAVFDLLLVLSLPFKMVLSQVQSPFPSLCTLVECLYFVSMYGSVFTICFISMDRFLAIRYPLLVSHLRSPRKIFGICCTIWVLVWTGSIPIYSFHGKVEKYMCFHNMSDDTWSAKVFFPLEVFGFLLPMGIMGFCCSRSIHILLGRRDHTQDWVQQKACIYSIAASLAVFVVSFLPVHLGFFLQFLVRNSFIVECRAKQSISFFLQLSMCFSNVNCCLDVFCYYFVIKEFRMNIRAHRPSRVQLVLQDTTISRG
Chain of Mu-type opioid receptor (P35372 whole entry): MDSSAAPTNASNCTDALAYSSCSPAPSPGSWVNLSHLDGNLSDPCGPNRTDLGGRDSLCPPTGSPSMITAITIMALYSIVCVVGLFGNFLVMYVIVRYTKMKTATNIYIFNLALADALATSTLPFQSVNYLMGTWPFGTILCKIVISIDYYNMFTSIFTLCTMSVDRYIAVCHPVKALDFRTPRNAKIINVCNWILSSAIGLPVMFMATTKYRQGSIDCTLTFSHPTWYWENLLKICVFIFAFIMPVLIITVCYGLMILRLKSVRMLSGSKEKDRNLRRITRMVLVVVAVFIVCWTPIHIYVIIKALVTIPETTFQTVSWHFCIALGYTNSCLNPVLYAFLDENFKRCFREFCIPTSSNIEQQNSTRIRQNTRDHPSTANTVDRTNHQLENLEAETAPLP
Chain of 5-hydroxytryptamine receptor 5A (P47898 whole entry): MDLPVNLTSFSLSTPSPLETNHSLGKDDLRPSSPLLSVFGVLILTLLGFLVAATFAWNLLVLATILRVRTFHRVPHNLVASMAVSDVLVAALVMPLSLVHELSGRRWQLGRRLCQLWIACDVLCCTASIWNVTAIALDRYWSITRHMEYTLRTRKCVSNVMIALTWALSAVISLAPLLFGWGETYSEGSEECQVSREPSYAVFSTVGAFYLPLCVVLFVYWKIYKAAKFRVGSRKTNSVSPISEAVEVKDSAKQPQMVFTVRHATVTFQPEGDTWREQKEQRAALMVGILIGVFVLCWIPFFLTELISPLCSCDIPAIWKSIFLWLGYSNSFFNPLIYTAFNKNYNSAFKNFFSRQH
Chain of Nonstructural protein 1 (Q194T2 whole entry): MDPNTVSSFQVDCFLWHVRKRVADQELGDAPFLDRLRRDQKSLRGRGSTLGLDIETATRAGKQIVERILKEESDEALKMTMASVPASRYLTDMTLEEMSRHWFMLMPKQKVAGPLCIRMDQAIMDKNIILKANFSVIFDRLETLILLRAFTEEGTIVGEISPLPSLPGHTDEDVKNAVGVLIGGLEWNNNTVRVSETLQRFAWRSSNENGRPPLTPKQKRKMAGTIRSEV

CCc1ccc(Nc2n[n+](-c3ccccc3)c(-c3c(Cl)cccc3Cl)s2)cc1
inactive: EC50 [17] > 32 µM | EC50 [18] 14.2 µM | EC50 [19] > 92.5 µM | EC50 [22] > 92.5 µM
active: EC50 [1] 5.53 µM | EC50 [2] 10.3 µM | IC50 [3] 3.12 µM | AC50 [4] 10.8 µM | EC50 [5] 3.58 µM | AC50 [6] 23.3 µM | IC50 [7] 6.79 µM | EC50 [8] 1.35 µM | AC50 [9] 47.5 µM | AC50 [10] 5.91 µM | EC50 [11] 9.38 µM | AC50 [12] 3.65 µM | AC50 [13] 3.71 µM | EC50 [14] 7.4 µM | AC50 [15] 14.6 µM | AC50 [16] 15.5 µM | IC50 [20] 24.4 µM | AC50 [21] 5.4 µM | AC50 [23] 19.4 µM
